The test system of assay [1] is schizophrenic patients. Conditions: cited from earlier work; for time to respond to antipsychotics, -141C Del allele carriers versus -141C Ins allele carriers: rs1799732 SNP; for time to respond to antipsychotics, -141C Del allele carriers versus -141C Ins allele carriers / improvement on treatment, C/C genotype versus non-C/C genotype: schizophrenic patients; for improvement on treatment, C/C genotype versus non-C/C genotype: rs6275 SNP.

Assay [2] has as its system patients with an acute exacerbation of schizophrenia. In words: Phase III clinical trial of iloperidone, change from baseline in PANSS-T by DRD2/ANKK1 SNP genotype. Conditions: iloperidone 24 mg/d; for PANSS-T mean change: day 14, white patients; for mean change in PANSS-T: day 14, white subpopulation. Format: in vivo, human. How it is done:
The clinical trial evaluated the efficacy of iloperidone in treating patients with diagnosed schizophrenia. The study, its results, and the inferences drawn therefrom are described below.
A four-week, randomized, double-blind, placebo- and ziprasidone-controlled, multicenter inpatient phase III clinical trial of iloperidone was conducted, including 409 individuals, to assess the efficacy of iloperidone, as measured by changes in the Positive and Negative Syndrome Scale Total (PANSS-T).
Patients, all diagnosed with an acute exacerbation of schizophrenia, were randomly assigned to one of three groups. A first group (n=218) received 24 mg/d (12 mg bid) of iloperidone, a second group (n=103) received 160 mg/d (80 mg bid) ziprasidone, and a third group (n=105) received a placebo. Efficacy was measured by a change from baseline in PANSS-T score.

In the case of `CN(C)CCCN1c2ccccc2Sc2ccc(Cl)cc21` [chlorpromazine], in assay [1], the “time to respond to antipsychotics, -141C Del allele carriers versus -141C Ins allele carriers” value is “significantly longer time to respond”.
For the compound `O=C(CCCN1CCC(O)(c2ccc(Cl)cc2)CC1)c1ccc(F)cc1` [haloperidol], the “improvement on treatment, C/C genotype versus non-C/C genotype” value in assay [1] is recorded as “greater improvement”.
Consider `COc1cc(C(C)=O)ccc1OCCCN1CCC(c2noc3cc(F)ccc23)CC1` [iloperidone, 1-[4-[3-[4-(6-flouro-1,2-benzisoxazol-3-yl)-1-piperidinyl]propoxy]-3-methoxyphenyl]ethanone], for which the figures for the PANSS-T mean change in assay [2] (rs2283265 G/T genotype) and in assay [2] (rs2283265 non-G/T genotype) were −2.4 (±3.0) and −11.8 (±2.0), respectively. Further, the “mean change in PANSS-T” value in assay [2] (rs1800497 (Taq1A) A1/A2 patients) is −2.1 (±2.7); in assay [2] (rs1800497 (Taq1A) non-A1/A2 patients), −12.7 (±2.1).
For the compound `Cc1nc2n(c(=O)c1CCN1CCC(c3noc4cc(F)ccc34)CC1)CCCC2` [risperidol], the “improvement on treatment, C/C genotype versus non-C/C genotype” value in assay [1] is “greater improvement”.
As to `Cc1nc2n(c(=O)c1CCN1CCC(c3noc4cc(F)ccc34)CC1)CCCC2` [risperidone], the “time to respond to antipsychotics, -141C Del allele carriers versus -141C Ins allele carriers” value in assay [1] is recorded as “significantly longer time to respond”. Moreover, the “response to treatment, -241A allele carriers versus -241G allele carriers” value in assay [1] (rs1799978 SNP, some patients) was “greater response”.

These data come from patent US9408839B2, “Antipsychotic treatment based on DRD2 or ANKK1 SNP genotype” (Vanda Pharmaceuticals, Inc., priority 2009, dated 2016).
